Data from patent US9828326B2, “Amooranin compounds and analogs thereof and related methods of use” (priority 2011, dated 2017).
Marks after values point to notes of the source that are not given here.

Experiments:
breast cancer cells = details: cited from earlier work
ER-α = assay: Immunohistochemistry of ER-α in mammary tumors; type: in vivo, Sprague-Dawley rats; details: low (0.8 mg/kg) or medium (1.2 mg/kg) dose + DMBA
Description: (§1) Serial sections of tumor tissue were used processed for immunohistochemical analysis. Cell proliferation was studied by immunohistochemical detection of proliferating cell nuclear antigen (PCNA) as a proliferation marker. The analysis of apoptotic cells in tumor sections were performed by using TdT-FragEL™ DNA fragmentation detection assay kit (EMD Biosciences, Inc., San Diego, Calif.). The protein expression of Bax (apoptosis inducer),Bcl-2 (apoptosis repressor), ER-a, ER-β, cyclin D1 and β-catenin were determined. The immunohistochemical slides were visualized under a light microscope (BX43, Olympus, Center Valley, Pa.) and at least 1,000 cells/animal were analyzed. Results were expressed as percentage of immunopositive cells.

[1] = system: proliferating cell nuclear antigen (PCNA); assay: Immunohistochemical detection of PCNA in tumor sections (cell proliferation); type: in vivo, Sprague-Dawley rats
Description: as §1

cyclin D1 = assay: Immunohistochemistry of cyclin D1 in mammary tumors; type: in vivo, Sprague-Dawley rats; details: medium (1.2 mg/kg) or high (1.6 mg/kg) dose + DMBA, vs DMBA control
Description: as §1

[2] = system: DMBA-induced mammary tumorigenesis; assay: Chemoprevention of DMBA-induced mammary tumorigenesis; details: for No. of rats with tumors/total rats / Total tumor burden / Tumor Incidence / Average tumor weight: + DMBA; for Average tumor weight: mean±SEM
Description: Following an acclimatization period of one week, rats (−43 days of age) were randomly divided into six groups of 7-11 animals in each. […] Two groups (groups A and B) were maintained on the basal diet without any further treatment, whereas the remaining four groups (groups C, D, E and F) were fed with AMR-Me through oral gavage three times a week (Monday-Wednesday-Friday). AMR-Me was mixed in polyethylene glycol (Sigma-Aldrich, St. Louis, Mo.) and administered by gently securing the animal by holding the skin back of its head and delivering the drug slowly via an animal feeding needle (Popper and Sons, Inc., New Hyde Park, N.Y.) attached to a I-ml syringe (Becton Dickinson, Franklin Lakes, N.J.). This technique ensured the accurate oral dosing of the test material. Three doses of AMR-Me were used: 0.8 mg/kg (for group C), 1.2 mg/kg (for group D) and 1.6 mg/kg (for groups E and F). These three doses (low, medium and high) represent 40, 60 and 80% of calculated maximum tolerated dose (MTD) in rats, respectively. The rat MTD was calculated based on the MTD in mice (3 mg/kg/day).
Following two week of aforementioned treatment regimen, at −57 days of age, mammary carcinogenesis was initiated in all animals belonging to groups B, C, D and E by a single administration of the mammary carcinogen, DMBA at 50 mg/kg body weight by gavage. The DMBA was dissolved in corn oil. This dose of DMBA was chosen so that substantial tumor incidence could be produced but not so high as to overwhelm the chemopreventive action of AMR-Me. Oral treatment of rats with AMR-Me in groups C, D, E and F were continued for 16 weeks following the DMBA administration (i.e., a total period of 18 weeks). Food and water intake as well as behavioral patterns were monitored daily and body weights of animals were recorded every alternate week.
Animals were palpated along the milk line twice a week starting 4 weeks following DMBA treatment to detect the presence of mammary tumors. All animals were sacrificed at 16 weeks post-DMBA treatment (i.e., 18 weeks following the start of the experiment).
Following an overnight fast, animals from each group were anesthetized between 09:00 and 11:00 h by intramuscular injection of 40-87 mg/kg ketamine and 5-13 mg/kg xylazine. The skin was dissected out to expose mammary tumors. The tumors (approximated spheres) were separated from mammary gland parenchyma, carefully excised, rinsed with phosphate-buffered saline (pH 7.4) to flush out any blood, blotted dry on a paper towel, weighed, and photographed. Each tumor was measured in two perpendicular directions with a vernier caliper to the nearest mm to obtain an average diameter. The representative tumor tissue as well liver and kidney were harvested and either immediately flash frozen in liquid nitrogen for molecular work or fixed in 4% paraformaldehyde. Later, serial tumor sections (−15-μm thick) were prepared using a microtome. These sections were used for histopathological assessment by hematoxylin and eosin (H&E) staining.

Bcl-2 [3] = assay: Western blot of Bcl-2 in tumor tissue; type: in vivo, Sprague-Dawley rats
Description: (§2) Total proteins were extracted from tumor tissues with lysis buffer (containing 20 mM HEPES, 350 mM NaCl, […], 1 mM MgCh, 20% glycerol, and 1% NP-40), boiled and separated by 4-20% gradient sodium dodecyl sulfate-polyacrylamide gel electrophoresis. The proteins were transferred to polyvinylidene fluoride membranes (Santa Cruz Biotechnology Inc., Santa Cruz, Calif.), and reacted with primary mouse monoclonal antibodies to Bax, Bcl-2, Bel-XL and β-Actin (dilution 1:200) and subsequently with anti-mouse secondary antibodies (dilution 1:1,000) conjugated to horseradish peroxidase. The immunoreactions were detected by an enhanced chemiluminescence detection kit (Them10 Scientific, Rockford, Ill.) and relative intensities of bands on blots were quantitated by autoluminography using a Kodak digital imaging system. Normalization of Western blot was ensured by β-Actin.

Bax [4] = assay: Immunohistochemistry of Bax in mammary tumors; type: in vivo, Sprague-Dawley rats
Description: as §1

CASP3 = assay: RT-PCR of tumor samples, CASP3; type: in vivo, Sprague-Dawley rats; details: tumors of AMR-Me + DMBA rats
Description: (§3) Total RNA from 20 mg of tumor sample was extracted using Quick RNA® mini Prep kit following the manufacturer's instructions. The expression levels of apoptotic and anti-apoptotic genes were monitored by reverse transcription-polymerase chain reaction (RT-PCR) using the cDNA verso kit with a temperature scale of 42° C. for 30 min for reverse transcription, and 32 cycles of 94° C. for 30 s, 56° C. for 30 s, and 72° C. for 30 s. The RT-PCR was carried out using the primers: […]
(§4) The PCR products were analyzed on 1% agarose gel and visualized by ethidium bromide staining.

[5] = system: apoptotic cells in tumor sections; assay: TdT-FragEL DNA fragmentation detection assay in tumor sections (apoptosis); type: in vivo, Sprague-Dawley rats
Description: as §1

[6] = parameters: species or system Sprague-Dawley rats; details: rat, in vivo, 1.6 mg/kg
Description: The possible toxicity of high dose (1.6 mg/kg) of AMR-Me was studied by investigating hepatic and renal histopathological characteristics using H&E staining.

Bax [7] = assay: Western blot of Bax in tumor tissue; type: in vivo, Sprague-Dawley rats; details: all doses (0.8, 1.2, 1.6 mg/kg) + DMBA
Description: as §2

β-catenin = assay: Immunohistochemistry of β-catenin in mammary tumors; type: in vivo, Sprague-Dawley rats; details: 0.8 mg/kg or 1.2 mg/kg + DMBA
Description: as §1

BCL2 = assay: RT-PCR of tumor samples, BCL2; type: in vivo, Sprague-Dawley rats; details: tumors of AMR-Me + DMBA rats
Description: as §3, §4

BAD = assay: RT-PCR of tumor samples, BAD; type: in vivo, Sprague-Dawley rats; details: tumors of AMR-Me + DMBA rats
Description: as §3, §4

PARP = assay: RT-PCR of tumor samples, PARP; type: in vivo, Sprague-Dawley rats; details: tumors of AMR-Me + DMBA rats
Description: as §3, §4

[8] = General observations: body weight, food and water intake; type: in vivo, Sprague-Dawley rats
Description: The DMBA was dissolved in corn oil.

CASP7 = assay: RT-PCR of tumor samples, CASP7; type: in vivo, Sprague-Dawley rats; details: tumors of AMR-Me + DMBA rats
Description: as §3, §4

[9] = mice; cited from earlier work
Bcl-2 [10] = assay: Immunohistochemistry of Bcl-2 in mammary tumors; type: in vivo, Sprague-Dawley rats
Description: as §1

Bax [11] = assay: RT-PCR of tumor samples, BAX; type: in vivo, Sprague-Dawley rats; details: tumors of AMR-Me + DMBA rats
Description: as §3, §4

[12] = system: breast cancer MCF-7 cells; details: in vitro; cited from earlier work
[13] = group C: 0.8 mg/kg oral three times a week, 18 weeks
[14] = group D: 1.2 mg/kg oral three times a week, 18 weeks
[15] = group E: 1.6 mg/kg oral three times a week, 18 weeks
[16] = medium (1.2 mg/kg) or high (1.6 mg/kg) dose + DMBA

With CC1(C)CC[C@]2(C(=O)O)CC[C@]3(C)C(=CC[C@@H]4[C@@]5(CO)CCC(=O)C(C)(C)[C@@H]5CC[C@]43C)[C@@H]2C1 [AMR, 25-Hydroxy-3-oxoolean-12-en-28-oic Acid] as the molecule, how does the anti-neoplastic activity (breast cancer cells; plant-derived compound) read?
The anti-neoplastic activity was “relatively weak”.

Which “intra-tumor expression of ER-α” value (ER-α) does the source give for COC(=O)[C@]12CCC(C)(C)C[C@H]1C1=CC[C@@H]3[C@@]4(CO)CCC(=O)C(C)(C)[C@@H]4CC[C@@]3(C)[C@]1(C)CC2 [AMR-Me, 25-hydroxy-3-oxoolean-12-en-28-oic Acid Methyl Ester] here?
The value was “reduced”.

What about the “ratio of ER-α/ER-β” value (ER-α) of the same molecule?
The value was “concomitant drop”.

And the “proliferation of tumor cells (PCNA-positive cells)” value ([1]; low dose 0.8 mg/kg + DMBA)?
Its value is “marginal reduction in the proliferation of tumor cells”.

What about the “PCNA labeling index (LI)” value ([1]; medium (1.2 mg/kg) or high (1.6 mg/kg) dose + DMBA, vs DMBA control) of the same molecule?
Its value is “statistically significant (P<0.001) decrease”.

What about the “percentage of cyclin D1-positive cells” value (cyclin D1) of the same molecule?
The value was “significant (P<0.05 or 0.001) decrease”.

And the “No. of rats with tumors/total rats” value [2, 13]?
The value was 5/8.

And the Total tumor burden [2, 13]?
Its Total tumor burden is 57.5 g.

And the “Tumor Incidence” value [2, 13]?
Its value is 62%.

And the Average tumor weight [2, 13]?
Its Average tumor weight is 11.5 ± 4.9 ^ g.

And the “No. of rats with tumors/total rats” value [2, 14]?
The value was 2/7.

And the Total tumor burden [2, 14]?
Its Total tumor burden is 9.6 g.

And the “Tumor Incidence” value [2, 14]?
The value was 28^a %.

What about the Average tumor weight [2, 14] of the same molecule?
Its Average tumor weight is 3.2 ± 1.5^b g.

What about the “No. of rats with tumors/total rats” value [2, 15] of the same molecule?
Its value is 2/7.

And the Total tumor burden [2, 15]?
Its Total tumor burden is 0.8 g.

What about the “Tumor Incidence” value [2, 15] of the same molecule?
The value was 28^a %.

What about the Average tumor weight [2, 15] of the same molecule?
Its Average tumor weight is 0.38 ± 0.03^b g.

And the “visible mammary tumors in AMR-Me control” value ([2]; group F: 1.6 mg/kg without DMBA, 18 weeks)?
The value was “no visible mammary tumors”.

What about the “improvement of cellular architecture in tumor tissue (H&E)” value ([2]; high dose 1.6 mg/kg + DMBA) of the same molecule?
Its value is “substantial improvement of cellular architecture”.

What about the size of tumors ([2]; high dose 1.6 mg/kg + DMBA) of the same molecule?
Its size of tumors is “striking reduction in size”.

And the size of tumors ([2]; low dose 0.8 mg/kg + DMBA)?
Its size of tumors is “reduced the size of tumors”.

What about the “tumor histopathological features (H&E)” value ([2]; low dose 0.8 mg/kg + DMBA) of the same molecule?
Its value is “did not modify tumor histopathological features”.

What about the “improvement of cellular architecture in tumor tissue (H&E)” value ([2]; medium dose 1.2 mg/kg + DMBA) of the same molecule?
The value was “moderate”.

And the size of tumors ([2]; medium dose 1.2 mg/kg + DMBA)?
The size of tumors was “further decrease in the size of tumor”.

And the “Bcl-2 expression (Western blot)” value (Bcl-2 [3]; high dose 1.6 mg/kg + DMBA)?
Its value is “complete abrogation”.

What about the “Bcl-2 expression (Western blot)” value (Bcl-2 [3]; low or medium dose + DMBA) of the same molecule?
Its value is “did not modify Bel-2 expression”.

And the “frequency of Bax-immunopositive cells” value (Bax [4]; low dose 0.8 mg/kg + DMBA)?
The value was “extremely low”.

What about the Bax/Bcl-2 ratio (Bax [4]; [16]) of the same molecule?
The Bax/Bcl-2 ratio was “elevated the Bax/Bcl-2 ratio in a dose-responsive manner”.

What about the Bax-positive cells (Bax [4]; medium (1.2 mg/kg) or high (1.6 mg/kg) dose + DMBA, vs DMBA alone) of the same molecule?
Its Bax-positive cells is “significantly (P<0.001) increased”.

And the “CASP3 mRNA level (RT-PCR)” value (CASP3)?
Its value is “up-regulation”.

And the “apoptotic index (AI)” value ([5]; low dose 0.8 mg/kg + DMBA, vs DMBA control)?
The value was “no noticeable difference”.

What about the “apoptotic index (AI)” value ([5]; medium (1.2 mg/kg) or high (1.6 mg/kg) dose + DMBA, vs DMBA) of the same molecule?
The value was “significant increase (P<0.001)”.

What about the “hepatotoxicity (hepatic histopathology)” value [6] of the same molecule?
Its value is “no hepatotoxicity was observed”.

What about the “nephrotoxicity (renal histopathology)” value [6] of the same molecule?
The value was “did not exhibit any nephrotoxicity”.

What about the “Bax expression (Western blot)” value (Bax [7]) of the same molecule?
The value was “elevated the Bax expression”.

What about the “inhibition of proliferation of several breast cancer cells, potency” value (breast cancer cells; relative to the parent compound) of the same molecule?
Its value is “greater potency than the parent compound AMR”.

And the “cytosolic β-catenin expression” value (β-catenin)?
Its value is “significant (P<0.001) decrease”.

And the “nuclear β-catenin expression” value (β-catenin)?
Its value is “significant (P<0.001) decrease”.

And the “BCL2 mRNA level (RT-PCR)” value (BCL2)?
The value was “down-regulation”.

What about the “BAD mRNA level (RT-PCR)” value (BAD) of the same molecule?
Its value is “up-regulation”.

And the “PARP mRNA level (RT-PCR)” value (PARP)?
The value was “up-regulation”.

What about the “body weights among rat groups” value ([8]; 0.8, 1.2 or 1.6 mg/kg, any time point) of the same molecule?
The value was “No significant difference”.

And the “food and water intakes” value ([8]; normal animals, 1.6 mg/kg body weight, 18 weeks)?
The value was “unaltered”.

And the “CASP7 mRNA level (RT-PCR)” value (CASP7)?
The value was “up-regulation”.

What about the “maximum tolerated dose (MTD)” value [9] of the same molecule?
The value was 3 mg/kg/day.

What about the “expression of cytoplasmic Bcl-2” value (Bcl-2 [10]; low dose 0.8 mg/kg + DMBA) of the same molecule?
Its value is “not altered”.

And the Bcl-2-positive cells (Bcl-2 [10]; [16])?
Its Bcl-2-positive cells is “significant (P<0.005 or 0.001) reduction”.

What about the “BAX mRNA level (RT-PCR)” value (Bax [11]) of the same molecule?
Its value is “up-regulation”.

What about the “potency against MCF-7 cells, concentrations” value [12] of the same molecule?
The value was “down to the nanomolar range”.
